{
  "source": "patent US7041276B2",
  "about": "“Methods of screening agents for activity using teleosts” (priority 1998, dated 2006)",
  "key": {"zebrafish embryos [1]": {"system": "zebrafish embryos", "assay": "Five-day zebrafish toxicity testing", "type": "in vivo", "procedure": "Fertilized zebrafish embryos were obtained by natural spawning in our aquaculture facility. To reduce variations between batches, randomized samples of embryos from 3 or 4 independent matings were used. The test medium was prepared by combining 5 g of Instant Ocean Salt with 3 g of CaSO4 in 25 liters of distilled water, according to Westerfield, supra. The embryos were maintained in the test medium throughout the experiments. Embryos at 24 hours of development (with chorion) were exposed continuously for five days to chemical compounds at different concentrations of the chemical compounds and controls. In general, the concentrations ranged from 100 nanomolar (nM) to 100 micromolar (μM). Tests were repeated four times for each series of dilutions, and a standard deviation was calculated for each treatment (see “Statistical Methods” section). Ten embryos per concentration were exposed in a total volume of 1 ml (constant ratio of 100 μl/embryo) using a 24 multi-well plate. (Other sizes of multi-well plates, such as 96-well plates can also be used to facilitate screening.) The compounds were renewed daily. In all cases, 0.1% of dimethyl sulfoxide (DMSO) was used as a carrier solvent during the treatment. Controls with and without 0.1% DMSO were performed in all experiments. This approach has long been used to introduce anesthetics and other chemicals into fish embryos (Westerfield, supra).\nExperiments were carried out at a constant temperature (28–28.5° C.) in the dark to protect the compounds from decomposition due to light exposure. Dead embryos were removed daily, counted, and used to calculate the Median Lethal Concentration (LC50, see “Statistical Methods” section herein). Each day, surviving embryos were analyzed visually under a dissecting binocular microscope (Zeiss, amplification 30–50×). Macroscopic malformations (such as axial defects, embryolethality, growth inhibition, general malformations, including microcephaly, macrocephaly, tail truncation, tail malformation, loss of axial structures, such as somites, etc.) were observed, classified, and counted to assess whole animal toxicity. Compounds that were lethal or induced these or any noted malformations or disruptions during development (e.g., during the first 5 days of development) were further examined for toxic effects on organs. The embryonic developmental stage that is affected by the toxic compound can be determined. Organ toxicity can be assessed in surviving embryos using in situ hybridization, enzymatic assays, and immunochemistry procedures.\nToxic activity in the kidney (Pronephros) can be assessed visually by colorimetric staining of the kidney of the treated whole animal (e.g., zebrafish). Zebrafish pronephros express high levels of the enzyme alkaline phosphatase that can be easily assayed using a chromogenic dye. To stain kidneys in zebrafish embryos, embryos were fixed with 2% paraformaldehyde overnight at 4° C. and then treated with methanol 100% for 30 minutes at room temperature. […]\nFor the concentrations tested with aspirin and dexamethasone in these studies, there was no partial lethality and the geometric mean of the parameters “no mortality” (0%) and “mortality” (100%) of the effect concentration was taken as the LC50 and binomial confidence limits were calculated according to Stephan, “Methods for Calculating LD50” in Aquatic Toxicology and Hazard Evaluation (F. L. Mayce and J. L. Hamelink eds.) ASTM STP 634, pp. 65–84. […]"}, "mice and rats": {"system": "mice and rats", "settings": "TOXNET Web Search and other sources; cited from earlier work"}, "zebrafish embryos [2]": {"system": "zebrafish embryos", "assay": "Microinjection of proteins into 24 hour embryos, effect on vessel formation", "type": "in vivo", "procedure": "To examine the effects of proteins and protein fragments (and peptides and peptide fragments) on angiogenesis in teleost embryos, proteins (and protein fragments and peptide fragments) were directly injected into the circulation of 24 hour zebrafish embryos. Embryos were collected and dechorionated as described above. The embryos were then sorted into holding ramps made of 1% agarose in embryo water and oriented with the yolk ball projecting up. Microinjection injection was performed as follows: the proteins were suspended in PBS and backfilled into a pulled glass micropipet. The micropipet was then attached to a micromanipulator and a picospritzer (General Valve) attached to a nitrogen tank. Using the micromanipulator, the tip of the micropipet was inserted into the embryo and a small volume of protein solution was expelled from the tip using positive pressure. To determine if our animal model could be used effectively to screen for these compounds, we performed a series of experiments in which we injected one of two different proteins having opposing effects on vessel formation—human endostatin (O'Reilly et al., Cell 88(2):277–285 (1997)) and human vascular endothelial growth factor (VEGF)—into an embryo. Endostatin, a collagen XVIII fragment, is an endogenous protein with potent anti-angiogenic activity. […] In preliminary experiments, we injected VEGF protein either into the yolk ball or into the perivitelline space between the yolk and the periderm. Because the second location is in the path of the venous return, proteins end up in the circulation of the embryo. To backfill the injection pipettes, we used a 2 mg/ml solution of VEGF. […] This is consistent with observations in other vertebrates. Drake et al., Proc. Natl. Acad. Sci. USA 92(17):7657–7661 (1995); Fouquet et al., supra. Endostatin was injected into the zebrafish as was VEGF."}, "zebrafish embryo": {"system": "zebrafish embryo", "assay": "First screening experiments for anti-angiogenic effects (compound added to fish culture media)", "type": "in vivo", "settings": "for other effects / complications in the embryo / effect on blood vessel formation: added to the fish culture media; for effect on blood vessel formation: AP staining day three; for diffusion into the zebrafish embryo: after addition to the media", "procedure": "On the third day of development, embryos were collected for alkaline phosphatase staining. Specifically, embryos were fixed in 4% paraformaldehyde and stained for endogenous alkaline phosphatase activity. Embryos were fixed for 2 hours at room temperature. The embryos were then washed two times in phosphate buffered saline (PBS) and dehydrated by immersion in 25%, 50%, 75% and 100% methanol in phosphate buffered saline with 0.1% Tween (PBT) to permeabilize the embryos. The embryos were then rehydrated and washed in 100% PBT. For staining, embryos were equilibrated in NTMT buffer (0.1M Tris-HCl pH 9.5; 50 mM MgCl; 0.1M NaCl; 0.1% Tween 20) at room temperature. After the embryos equilibrated, embryos were stained by adding 4.5 μl of 75 mg/ml nitro blue tetrazolium (NBT) and 3.5 μL of 50 mg/ml X-phosphate per ml. After staining for 10 minutes, all the blood vessels in the fish embryo were labeled (see FIGS. 2A–2C, 3A–3B, 4, 7). The staining reaction was stopped by addition of PBST. Embryos were then examined on a stereo-dissecting microscope. One advantage of using the zebrafish for this type of assay is that the subintestinal vessels, which are located over the yolk, are both sensitive to factors which effect vessel formation and easily assayed by this method (see, e.g., FIG. 7). The subintestinal vessels are normally present on the dorsolateral surface of the yolk of zebrafish embryos by 48 hours of development. They form a distinct basket shape that extends 50–100 μm from the ventral edge of the somite over the yolk. By assaying the subintestinal vessels at 72 hours of development (24 hours after the subintestinal vessels normally appear), normal variation in the timing of the vessel formation was avoided. The staining procedure is easily automated using commercially available instrumentation.\nIn our first set of screening experiments for anti-angiogenic effects, we examined the effect of fumagillin, a natural anti-angiogenesis chemical, on blood vessel formation in the zebrafish embryo. The compound was administered by addition to the fish culture media. […] Using the screening parameters described above, we identified two compounds that caused apparently specific anti-angiogenic effects. In addition, we identified 16 other compounds that caused a reduction of angiogenic vessel formation in addition to other effects."}, "zebrafish embryos [3]": {"system": "zebrafish embryos", "assay": "Rescue of induced cell death activity", "type": "in vivo", "settings": "for opacity at two hours after the addition of 100 μM Ibuprofen / opaque cells at one hour after 100 μM Ibuprofen: yolk injection of 25 μM Caspase 3 inhibitor or PBS at 24 hours; for opaque cells at one hour after 100 μM Ibuprofen: Ibuprofen at 26 hours", "procedure": "To determine if the teleost model could be used to screen for compounds which blocked or reduced cell death activity, embryos were microinjected with a Caspase 3 inhibitor (Calbiochem #264155) prior to exposure to Ibuprofen.\nSpecifically, embryos at 24 hours of development were dechorionated and microinjected with either 25 μM Caspase 3 inhibitor or PBS into the yolk. At 26 hours of development, embryos were exposed to 100 μM Ibuprofen by addition to the media."}, "zebrafish embryos [4]": {"system": "zebrafish embryos", "assay": "Fluorescent detection of cell death in live zebrafish embryos", "type": "in vivo", "settings": "100 μM", "procedure": "As an additional test of our cell death detection method, we also examined the ability of the dye to label cells in embryos treated with Ibuprofen, a cyclooxygenase inhibitor, which causes a characteristic pattern of cell death. This pattern consists of a posterior to anterior progression of dying cells as indicated by a progression of opacity changes in the cells of the embryo.\nEmbryos as 24 hours of development were pretreated for 1 hour with a 100 nanomolar concentration of the fluorescent dye (e.g., benzothiazolium-4-quinolium dye) in embryo media. The embryos were then exposed to 100 μM of Ibuprofen by addition to the media and examined by light and epifluorescence microscopy every 15 minutes for 2 hours. Control embryos were pretreated with the same concentration of dye, but were not exposed to the Ibuprofen. […] This pattern of fluorescently labeled cells was identical to the pattern observed for the opacity changes in the embryo."}, "[5]": {"settings": "2 mg/ml solution, 24 hour embryos, AP staining at 72 hours"}, "[6]": {"settings": "24 hour embryos pretreated with dye"}},
  "note": "Entries after “also recorded” stand apart in the source; their conditions may differ.",
  "data": [
    {"compound": "CC(=O)Oc1ccccc1C(=O)O", "note": "[Aspirin]", "values": [
      {"measurement": "Zebrafish LD50", "setting": "zebrafish embryos [1]; embryos exposed continuously for five days from 24 hours of development", "value": 101, "unit": "mg/L"},
      {"measurement": "Zebrafish specific toxicity observed", "setting": "zebrafish embryos [1]; five-day exposure", "value": "teratogen,; also recorded: kidney,; also recorded: muscle; also recorded: erratic"},
      {"measurement": "Mammalian models specific toxicity (from the literature)", "setting": "mice and rats", "value": "kidney,; also recorded: ureter,; also recorded: cardio-; also recorded: cranio-; also recorded: musculo-"}
    ]},
    {"compound": "endostatin", "values": [
      {"measurement": "effect on vessel formation after injection", "setting": "zebrafish embryos [2]; injected into the zebrafish as was VEGF", "value": "inconsistent and thus uninterpretable"}
    ]},
    {"compound": "CO[C@@H]1[C@H](OC(=O)/C=C/C=C/C=C/C=C/C(=O)O)CC[C@]2(CO2)[C@H]1[C@@]1(C)O[C@@H]1CC=C(C)C", "note": "[fumagillin]", "values": [
      {"measurement": "other effects / complications in the embryo", "setting": "zebrafish embryo", "value": "pericardial edema, developmental delay, and axial defects"},
      {"measurement": "effect on blood vessel formation", "setting": "zebrafish embryo", "value": "reduction in angiogenesis"},
      {"measurement": "diffusion into the zebrafish embryo", "setting": "zebrafish embryo", "value": "capable of diffusing into the zebrafish embryo"}
    ]},
    {"compound": "Ovicillin", "values": [
      {"measurement": "other effects / complications in the embryo", "setting": "zebrafish embryo", "value": "pericardial edema"},
      {"measurement": "effect on blood vessel formation", "setting": "zebrafish embryo", "value": "reduction in the subintestinal vessels"},
      {"measurement": "diffusion into the zebrafish embryo", "setting": "zebrafish embryo", "value": "capable of diffusing into the zebrafish embryo"}
    ]},
    {"compound": "VEGF", "values": [
      {"measurement": "angiogenic phenotypes after injection into the yolk", "setting": "zebrafish embryos [2]; [5]", "value": "the appearance of long spikes projecting from the subintestinal vessel basket; also recorded: increased vessel diameters in the subintestinal basket"},
      {"measurement": "effect after injection into the perivitelline space", "setting": "zebrafish embryos [2]; [5]", "value": "disruption of vessel formation; also recorded: fusion of large vessels, inappropriate vessel formation"}
    ]},
    {"compound": "COC(=O)CC[C@H](NC(=O)[C@H](CC(=O)OC)NC(=O)OCc1ccccc1)C(=O)N[C@H](C(=O)N[C@@H](CC(=O)OC)C(=O)CF)C(C)C", "note": "[Caspase 3 inhibitor]", "values": [
      {"measurement": "survival by 24 hours after the introduction of 100 μM Ibuprofen", "setting": "zebrafish embryos [3]; yolk injection of 25 μM Caspase 3 inhibitor", "value": "all of the experimental embryos were dead"},
      {"measurement": "opacity at two hours after the addition of 100 μM Ibuprofen", "setting": "zebrafish embryos [3]", "value": "still transparent"},
      {"measurement": "opaque cells at one hour after 100 μM Ibuprofen", "setting": "zebrafish embryos [3]", "value": "not in embryos injected with the Caspase inhibitor"}
    ]},
    {"compound": "CC(C)Cc1ccc(C(C)C(=O)O)cc1", "note": "(centres unmarked) [Ibuprofen]", "values": [
      {"measurement": "opacity at two hours after the addition of 100 μM Ibuprofen", "setting": "zebrafish embryos [3]", "value": "completely opaque"},
      {"measurement": "opaque cells at one hour after 100 μM Ibuprofen", "setting": "zebrafish embryos [3]", "value": "opaque cells were observed"},
      {"measurement": "fluorescently labeled (dead or dying) cells within 1 hour", "setting": "zebrafish embryos [4]; 24 hour embryos pretreated with 100 nanomolar dye", "value": "fluorescently labeled cells were detected in the posterior tip of the tail"},
      {"measurement": "fluorescently labeled cells at 1 hour and 30 minutes", "setting": "zebrafish embryos [4]; [6]", "value": "labeled cells were detected in a large patch, extended from the tip of the tail to the level of the anus"},
      {"measurement": "fluorescently labeled cells by two hours", "setting": "zebrafish embryos [4]; [6]", "value": "fluorescently labeled cells could be seen throughout the embryo"}
    ]}
  ]
}
